Experimental data: US20240010989A1, “MEDIUM FOR CULTURING AND EXPANDING NEPHRON PROGENITOR CELLS, METHOD FOR CULTURING AND EXPANDING NEPHRON PROGENITOR CELLS, AND METHOD FOR PRODUCING RENAL ORGANOIDS” (Kyoto University, priority 2021, published 2024)

Experiments:
Format in all cases: cell-based, human
[1] = tested on: hNPC (c-MET(+)); assay: Production of renal organoids from subcultured hNPC (c-MET(+)); details: 3 nM in CFY medium, cells of passage 1
Method: (§1) Ten μL of human-HGFR/c-MET antibody to which the fluorescent substance APC had been bound (FAB 3582A, R&D Systems Inc.) was added to 100 μL of the 2% FBS suspension of the induced hNPC cells prepared above, and the resultant was left to stand for 30 minutes on ice. After 30 minutes, the sample was centrifuged at 200 g for 5 minutes, the supernatant was removed, the residue was washed with 1 mL of PBS, and the sample was once again centrifuged at 200 g for 5 minutes and the supernatant removed. This operation was conducted twice. The cells obtained following removal of the supernatant were suspended in DAPI that had been diluted 1,000-fold with 2% FBS, and following filtration through a 40 μm filter, flow cytometry was used to extract the c-MET-positive cells.
A cell mass of hNPC that had been subcultured in the test medium were placed in a Transwell (Corning), and the surrounding medium was removed. Next, the Transwell with the cell mass thereon was set in a culture dish that had been filled with 5% KSR (Kock-out Serum Replacement) (Thermo Fisher Scientific) to which 200 ng/mL of FGF2 and 5 μM of CHIR99021 had been added in advance. After 48 hours, the medium was replaced with 5% KSR containing no added growth factors or low-molecular weight compounds. […]

[2] = tested on: hNPC (Bulk); assay: Production of renal organoids from subcultured hNPC (Bulk); details: 3 nM in CFY medium, cells of passage 2
Method: A cell mass of hNPC that had been subcultured in the test medium were placed in a Transwell (Corning), and the surrounding medium was removed. Next, the Transwell with the cell mass thereon was set in a culture dish that had been filled with 5% KSR (Kock-out Serum Replacement) (Thermo Fisher Scientific) to which 200 ng/mL of FGF2 and 5 μM of CHIR99021 had been added in advance. After 48 hours, the medium was replaced with 5% KSR containing no added growth factors or low-molecular weight compounds. Thereafter, the medium was replaced every 48 hours with fresh 5% KSR containing no added growth factors or low-molecular weight compounds, and on the 10th day after starting the differentiation culture, the cells were fixed for 3 hours at 4° C. using 4% PFA without removal from the Transwell. Following fixing, the medium was replaced with PBS, and after standing overnight at 4° C., immunostaining was conducted.
Bright field images of renal organoids were captured using either a KEYENCE BZ-X700 or a confocal microscope (Zeiss LSM710). Image analysis was performed using Image J version 1.51j8 (National Institutes of Health) (C. A. Schneider, et al., Nat Methods. 9 (2012) 671 to 675.).
Attempts were made to produce renal organoids from hNPC (Bulk) that had been subcultured using either the hNPSR medium or the CFY medium.

[3] = tested on: hNPC (Bulk); assay: Expression of NPC markers SIX2 and OSR1 in subcultured hNPC (Bulk); details: 3 nM in CFY medium, subculture of hNPC (Bulk)
Method: A cell mass of the human iPS cell-derived NPC (hNPC) cultured in the test medium was transferred to a 1.5 ml tube, the supernatant was removed completely, 30 μL of Accumax (Innovative Cell Technologies, Inc.) was added, and the resultant was left to stand for 10 minutes in an incubator at 37° C. and 5% CO2. After 10 minutes, the sample was suspended in 470 μL of 10% FBS, and the cell count was measured with a TC20 (Bio-Rad Laboratories, Inc.). The human iPS cell-derived NPC were suspended in the test medium and then used to inoculate a low-attachment 96-well plate (Nunc) in an amount of 2.0×10^4 cells per well. This low-attachment 96-well plate that had been inoculated with the cells was centrifuged at 300 g for 3 minutes, and the cells were then subjected to static culture in an incubator at 37° C. and 5% CO2. Then, 48 hours after starting this static culture, an additional 100 μL of the test medium was administered to each well. Subsequently, 48 hours after this additional administration, the above operations were repeated, with the cell count being measured and a subculture conducted.
(§2) Expression of OSR1 and SIX2 was confirmed by conducting a culture test using these human iPS cells, and detecting the respective fluorescence from the GFP and tdTomato using a fluorescence microscope. […]

[4] = tested on: hNPC (c-MET(+)); assay: Expression of NPC markers OSR1 and SIX2 in subcultured hNPC (c-MET(+)); details: 3 nM in CFY medium, subculture of hNPC (c-MET(+))
Method: as §1, with “The cells obtained following removal of the supernatant were suspended in DAPI that had been diluted 1,000-fold with 2% FBS, and following filtration through a 40 μm filter, flow cytometry was used to extract the c-MET-positive cells.” left out
(§3) A cell mass of the human iPS cell-derived NPC (hNPC) cultured in the test medium was transferred to a 1.5 ml tube, the supernatant was removed completely, 30 μL of Accumax (Innovative Cell Technologies, Inc.) was added, and the resultant was left to stand for 10 minutes in an incubator at 37° C. and 5% CO2. After 10 minutes, the sample was suspended in 470 μL of 10% FBS, and the cell count was measured with a TC20 (Bio-Rad Laboratories, Inc.). […] Subsequently, 48 hours after this additional administration, the above operations were repeated, with the cell count being measured and a subculture conducted.
as §2

[5] = tested on: hNPC (Bulk); assay: Cell growth (cell count, cumulative cell count) of hNPC (Bulk); details: 3 nM in CFY medium (CFY+TG(3)) vs CFY+DMSO
Method: The hNPC were suspended in 50 μL of a test medium in sufficient amount to achieve 2.0×10^4 cells per well, and the suspension was then used to inoculate a low-attachment 96-well plate (Nunc), and following centrifuging at 300 g for 3 minutes, the cells were subjected to a static culture in an incubator at 37° C. and 5% CO2. Six hours after starting the static culture, a cell mass had formed.
(§4) Subsequently, 48 hours after the start of the static culture, an additional 100 μL of the same medium as that used at the time of cell inoculation was administered to each well. […] After 10 minutes, the sample was suspended in 470 μL of 10% FBS, and the cell count was measured with a TC20 (Bio-Rad Laboratories, Inc.).
as §3, with “conducted. […]” for “conducted.”

[6] = tested on: hNPC (c-MET(+)); assay: Cell growth (cumulative cell count) in subculture of hNPC (c-MET(+)); details: 3 nM in CFY medium vs CFY+DMSO
Method: as §1, with “The cells obtained following removal of the supernatant were suspended in DAPI that had been diluted 1,000-fold with 2% FBS, and following filtration through a 40 μm filter, flow cytometry was used to extract the c-MET-positive cells.” left out
as §4
A cell mass of the human iPS cell-derived NPC (hNPC) cultured in the test medium was transferred to a 1.5 ml tube, the supernatant was removed completely, 30 μL of Accumax (Innovative Cell Technologies, Inc.) was added, and the resultant was left to stand for 10 minutes in an incubator at 37° C. and 5% CO2. After 10 minutes, the sample was suspended in 470 μL of 10% FBS, and the cell count was measured with a TC20 (Bio-Rad Laboratories, Inc.). […]

[7] = tested on: hiPSC; assay: Differentiation induction efficiency of SIX2-positive cells, hNPC from hiPSC (differentiation induction method B)
Method: <Method for Differentially Inducing hNPC from hiPSC (Differentiation Induction Method B)> • 1. Undifferentiated hiPSC were converted to single cells using a TrypLE Select Enzyme (Gibco), and then using a medium prepared using DMEM/F12 Glutamax (Invitrogen) supplemented with B27 as the basal medium and adding 1 μM of CHIR99021, 10 nM of retinoic acid, 1 ng/ml of BMP4, 100 ng/ml of FGF2, 10 μM of Y-27632 and iMatrix-511 (Nippi) to this basal medium, plating was conducted at a density within a range from 1.0×10^4 cells/well to 5.0×10^4 cells/well, and the cells were then incubated for 24 hours at 37° C. (production of a late posterior epiblast: step 1). • 2. On day 1, medium replacement was conducted using a medium prepared by adding 5 μM of CHIR99021, 1 ng/ml of BMP7 and 100 ng/ml of FGF2 to the same basal medium as above (production of a mesodermal-lineage primitive streak: step 2). • 3. On day 2, medium replacement was conducted using a medium prepared by adding 5 μM of CHIR99021, 1 ng/ml of BMP7, 100 ng/ml of FGF2 and 10 μM of A83-01 to the same basal medium as above (production of a mesodermal-lineage late primitive streak: step 3). • 4. On day 3, medium replacement was conducted using a medium prepared by adding 5 μM of CHIR99021, 100 ng/ml of FGF2, 1 ng/ml of BMP7, 10 ng/ml of activin A and 30 μM of Y-27632 to the same basal medium (production of a metanephric-lineage late primitive streak: step 4). • 5. On day 6, medium replacement was conducted using a medium prepared by adding 100 nM of retinoic acid, 200 ng/ml of FGF9 and 25 ng/ml of Noggin to the same basal medium (production of a late posterior intermediate mesoderm: step 5). • 6. On day 8, medium replacement was conducted using a medium prepared by adding 1 μM of CHIR99021 and 200 ng/ml FGF9 to the same basal medium (production of hNPC: step 6).

Q: Which renal organoid formation [1] does the source give for `Cc1cnc(Nc2ccc(OCCN3CCCC3)cc2)nc1Nc1cccc(S(=O)(=O)NC(C)(C)C)c1` [TG101348] here?
A: formed

Q: And the renal organoid formation [2]?
A: formed

Q: And the “expression of both OSR1 and SIX2” value [3]?
A: maintained up until passage 3

Q: And the “expression of both OSR1 and SIX2” value [4]?
A: maintained up until passage 3

Q: And the “cell growth (cell count)” value [5]?
A: promoted more

Q: And the “cell growth (cumulative cell count)” value [6]?
A: better promoted in all passages

Q: Which “induction efficiency into hNPC” value ([7]; FGF2 concentration in step 4 reduced to 10 ng/mL or less) does the source give for “FGF2: fibroblast growth factor 2 (basic FGF)” here?
A: decreased

Q: What about the hNPC induction efficiency ([7]; concentration of FGF2 in step 3 varied (100, 30, 10 ng/ml)) of the same molecule?
A: no effect

Q: What does the source list for heparin?
A: hNPC induction efficiency ([7]; 0.18 U/ml (1 μg/ml) heparin added with FGF2 in step 4): no effect; hNPC induction efficiency ([7]; 0.18 U/ml (1 μg/ml) heparin added with FGF9 in step 5): no effect
